Test results: PubChem BioAssay (NCI)
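Assay format: 96-well plates, 48-hour exposure. TGI denotes the concentration required for complete inhibition of growth.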

Columns and labels:
Test in all cases: NCI tumour cell line growth inhibition, 48 h
[1] = tested on: KM12 colon
[2] = tested on: A549 NSCLC
[3] = tested on: SW-620 colon
[4] = tested on: OVCAR-4 ovarian
[5] = tested on: HCT-116 colon
[6] = tested on: COLO 205 colon
[7] = tested on: RPMI-8226 leukemia
[8] = tested on: CAKI-1 renal
[9] = tested on: NCI-H23 lung
[10] = tested on: SK-MEL-5 melanoma
[11] = tested on: MALME-3M melanoma
[12] = tested on: EKVX NSCLC
[13] = tested on: U251 CNS
[14] = tested on: K-562 leukemia
[15] = tested on: HCC-2998 colon
[16] = tested on: HOP-18 NSCLC
[17] = tested on: UACC-62 melanoma
[18] = tested on: A498 renal
[19] = tested on: SK-OV-3 ovarian
[20] = tested on: SNB-78 CNS
[21] = tested on: LOX IMVI melanoma
[22] = tested on: NCI-H226 lung
[23] = tested on: SNB-75 CNS
[24] = tested on: HCT-15 colon
[25] = tested on: HT29 colon
[26] = tested on: SK-MEL-28 melanoma
[27] = tested on: OVCAR-5 ovarian
[28] = tested on: RXF 393 renal
[29] = tested on: IGROV1 ovarian
[30] = tested on: HL-60(TB) leukemia
[31] = tested on: HOP-92 NSCLC
[32] = tested on: NCI/ADR-RES ovarian
[33] = tested on: SF-268 CNS
[34] = tested on: DMS 273 small cell lung
[35] = tested on: SN12C renal
[36] = tested on: P388/ADR leukemia
[37] = tested on: OVCAR-8 ovarian
[38] = tested on: OVCAR-3 ovarian
[39] = tested on: MOLT-4 leukemia
[40] = tested on: HOP-62 NSCLC
[41] = tested on: MCF7 breast
[42] = tested on: P388 leukemia
[43] = tested on: NCI-H522 lung
[44] = tested on: CCRF-CEM leukemia
[45] = tested on: SK-MEL-2 melanoma
[46] = tested on: DMS 114 small cell lung
[47] = tested on: SF-295 CNS
[48] = tested on: UACC-257 melanoma
[49] = tested on: M19-MEL melanoma
[50] = tested on: SF-539 CNS
[51] = tested on: SN12K1 renal
[52] = tested on: NCI-H460 lung
[53] = tested on: XF 498 CNS
[54] = tested on: DLD-1 colon
[55] = tested on: KM20L2 colon
[56] = tested on: SNB-19 CNS
[57] = tested on: UO-31 renal
[58] = tested on: LXFL 529 NSCLC
[59] = tested on: SR leukemia
[60] = tested on: M14 melanoma
[61] = tested on: 786-0 renal
[62] = tested on: ACHN renal
[63] = tested on: TK-10 renal
[64] = tested on: RXF-631 renal

Compound: CCC(C(C)N1CC(=O)NC(=O)C1)N1CC(=O)NC(=O)C1 (stereo unspecified)
- TGI [1]: > 100 µM
- TGI [2]: > 100 µM
- TGI [3]: > 100 µM
- TGI [4]: > 100 µM
- TGI [5]: > 100 µM
- TGI [6]: > 27.9 µM
- TGI [7]: > 100 µM
- TGI [8]: > 100 µM
- TGI [9]: > 100 µM
- TGI [10]: > 100 µM
- TGI [11]: > 100 µM
- TGI [12]: > 30 µM
- TGI [13]: > 100 µM
- TGI [14]: > 100 µM
- TGI [15]: > 100 µM
- TGI [16]: > 100 µM
- TGI [17]: > 100 µM
- TGI [18]: > 100 µM
- TGI [19]: > 100 µM
- TGI [20]: > 100 µM
- TGI [21]: > 100 µM
- TGI [22]: > 100 µM
- TGI [23]: > 100 µM
- TGI [24]: > 100 µM
- TGI [25]: > 100 µM
- TGI [26]: > 100 µM
- TGI [27]: > 100 µM
- TGI [28]: > 100 µM
- TGI [29]: > 100 µM
- TGI [30]: > 100 µM
- TGI [31]: > 100 µM
- TGI [32]: > 100 µM
- TGI [33]: > 100 µM
- TGI [34]: > 100 µM
- TGI [35]: > 100 µM
- TGI [36]: > 100 µM
- TGI [37]: > 100 µM
- TGI [38]: > 100 µM
- TGI [39]: > 100 µM
- TGI [40]: > 100 µM
- TGI [41]: > 100 µM
- TGI [42]: > 75.9 µM
- TGI [43]: > 63.5 µM
- TGI [44]: > 100 µM
- TGI [45]: > 100 µM
- TGI [46]: > 95 µM
- TGI [47]: > 100 µM
- TGI [48]: > 100 µM
- TGI [49]: > 100 µM
- TGI [50]: > 100 µM
- TGI [51]: > 100 µM
- TGI [52]: > 100 µM
- TGI [53]: > 100 µM
- TGI [54]: > 100 µM
- TGI [55]: > 100 µM
- TGI [56]: > 100 µM
- TGI [57]: > 100 µM

Compound: CC(=O)Oc1ccc(O)c2c1CCCC2
- TGI [1]: > 100 µM
- TGI [2]: > 100 µM
- TGI [3]: 39.6 µM
- TGI [58]: 31.2 µM
- TGI [4]: 33.2 µM
- TGI [5]: 32.9 µM
- TGI [6]: 55.6 µM
- TGI [59]: 16.3 µM
- TGI [7]: 66.4 µM
- TGI [8]: > 73.4 µM
- TGI [9]: > 91.1 µM
- TGI [10]: > 63.3 µM
- TGI [11]: > 61.2 µM
- TGI [12]: > 100 µM
- TGI [13]: > 100 µM
- TGI [14]: 54.6 µM
- TGI [60]: > 68.2 µM
- TGI [15]: > 100 µM
- TGI [16]: > 100 µM
- TGI [17]: > 100 µM
- TGI [18]: > 31.6 µM
- TGI [61]: > 100 µM
- TGI [19]: > 100 µM
- TGI [20]: 40.2 µM
- TGI [21]: 36.3 µM
- TGI [22]: > 100 µM
- TGI [23]: > 100 µM
- TGI [24]: 18.4 µM
- TGI [25]: > 100 µM
- TGI [26]: > 100 µM
- TGI [27]: > 100 µM
- TGI [28]: > 57.5 µM
- TGI [29]: > 100 µM
- TGI [30]: 14.1 µM
- TGI [33]: > 100 µM
- TGI [34]: > 64.1 µM
- TGI [35]: > 65.9 µM
- TGI [37]: 32.9 µM
- TGI [38]: 25.9 µM
- TGI [39]: 43.5 µM
- TGI [62]: 29.2 µM
- TGI [40]: > 100 µM
- TGI [43]: 18.1 µM
- TGI [44]: 47.6 µM
- TGI [45]: > 100 µM
- TGI [46]: > 54 µM
- TGI [47]: > 100 µM
- TGI [48]: > 91.1 µM
- TGI [49]: 18.4 µM
- TGI [50]: > 100 µM
- TGI [52]: > 31.6 µM
- TGI [53]: 30 µM
- TGI [63]: 49.6 µM
- TGI [54]: 48.5 µM
- TGI [55]: > 100 µM
- TGI [56]: > 100 µM
- TGI [57]: > 64.5 µM
- TGI [64]: > 100 µM

Compound: CCCCCCCCC1=CCC(CN(C)C)C1=O (stereo unspecified)
- TGI [1]: 38 µM
- TGI [2]: > 100 µM
- TGI [3]: 36.6 µM
- TGI [4]: 50.8 µM
- TGI [5]: 36.5 µM
- TGI [6]: 33.9 µM
- TGI [7]: 4.2 µM
- TGI [9]: 39.2 µM
- TGI [10]: 41.4 µM
- TGI [11]: 32.3 µM
- TGI [12]: 48.1 µM
- TGI [13]: 32.8 µM
- TGI [14]: 59 µM
- TGI [15]: 27.7 µM
- TGI [17]: 33.2 µM
- TGI [18]: > 58.4 µM
- TGI [19]: > 100 µM
- TGI [20]: 46.4 µM
- TGI [21]: 33.7 µM
- TGI [22]: > 76.3 µM
- TGI [23]: 32.1 µM
- TGI [24]: 33.7 µM
- TGI [25]: 35.4 µM
- TGI [26]: 38.2 µM
- TGI [27]: > 72.4 µM
- TGI [28]: 36 µM
- TGI [29]: 35.9 µM
- TGI [30]: 33.8 µM
- TGI [31]: 31 µM
- TGI [32]: 41.7 µM
- TGI [33]: 34.7 µM
- TGI [34]: 35.3 µM
- TGI [35]: 32.4 µM
- TGI [36]: 15 µM
- TGI [37]: 34.9 µM
- TGI [38]: 34.3 µM
- TGI [39]: 48.2 µM
- TGI [40]: > 31.6 µM
- TGI [41]: 13.6 µM
- TGI [42]: 46.5 µM
- TGI [43]: 31.3 µM
- TGI [44]: > 60.1 µM
- TGI [45]: 46.1 µM
- TGI [46]: 34.4 µM
- TGI [47]: > 60.7 µM
- TGI [48]: 45.7 µM
- TGI [49]: 32.3 µM
- TGI [50]: 36.9 µM
- TGI [51]: 32.1 µM
- TGI [52]: 26.1 µM
- TGI [54]: 35 µM
- TGI [55]: 47.4 µM
- TGI [56]: > 79 µM
- TGI [57]: 39.2 µM

Compound: CCCCCCC[C@@H](O)CC(=O)NC(CC(C)C)C(=O)NC(CCC(=O)O)C(=O)NC1C(=O)NC(C(C)C)C(=O)NC(CC(C)C)C(=O)NC(CO)C(=O)NC(CC(C)C)C(=O)NC(CO)C(=O)NC(C(C)CC)C(=O)OC1C (stereo partly specified)
- TGI [1]: 26.6 µM
- TGI [2]: 36.1 µM
- TGI [3]: 28.8 µM
- TGI [58]: 25.8 µM
- TGI [4]: 34.4 µM
- TGI [5]: 25.7 µM
- TGI [6]: 2.93 µM
- TGI [59]: 35.3 µM
- TGI [7]: 33.5 µM
- TGI [8]: 37.6 µM
- TGI [9]: 29.9 µM
- TGI [10]: 29.9 µM
- TGI [11]: 17.6 µM
- TGI [13]: 20.9 µM
- TGI [14]: 30.9 µM
- TGI [60]: 20.9 µM
- TGI [15]: 28.6 µM
- TGI [16]: 24.9 µM
- TGI [17]: 29.1 µM
- TGI [18]: 31.6 µM
- TGI [61]: 27.9 µM
- TGI [19]: 34.4 µM
- TGI [20]: 34.3 µM
- TGI [21]: 31.2 µM
- TGI [22]: 34.2 µM
- TGI [23]: 18 µM
- TGI [24]: 4.42 µM
- TGI [25]: 31 µM
- TGI [26]: 30.6 µM
- TGI [27]: 31.8 µM
- TGI [28]: 26 µM
- TGI [29]: 31.6 µM
- TGI [30]: 37.2 µM
- TGI [31]: 18.7 µM
- TGI [33]: 30.5 µM
- TGI [34]: 28.1 µM
- TGI [35]: 29.5 µM
- TGI [37]: 29.8 µM
- TGI [38]: 31.1 µM
- TGI [39]: 39.9 µM
- TGI [62]: 25.7 µM
- TGI [40]: 24.4 µM
- TGI [43]: 26.6 µM
- TGI [44]: 25.8 µM
- TGI [46]: 33.1 µM
- TGI [47]: 22.2 µM
- TGI [48]: 29 µM
- TGI [49]: 22.6 µM
- TGI [50]: 4.77 µM
- TGI [52]: 11.3 µM
- TGI [53]: 15.2 µM
- TGI [63]: 28.9 µM
- TGI [54]: 3.04 µM
- TGI [55]: 30.5 µM
- TGI [56]: 16.6 µM
- TGI [57]: 33.6 µM
- TGI [64]: 28.8 µM
